Patent US20210196702A1, “TREATMENT OF HYPERKINETIC MOVEMENT DISORDERS” (Neurocrine Biosciences, Inc., priority 2014, published 2021)
Like-named read-outs stand apart in the source and are kept apart here. Each block holds one molecule with its values, some of them ahead of it.

Columns and labels:
[1] = NBI-98854 multiple-dose cohort: plasma (+)α-HTBZ on day 8; assay type: in vivo, human; settings: for half-life: read-out: apparent ti (half-life) of plasma concentration decline (converted)
Experimental: (§1) Plasma concentrations of (+)α-HTBZ, (+)β-HTBZ, and compounds as disclosed herein may be measured by methods as described in Derangula et al, Biomedical Chromatography 2013 27(6): 792-801, Mehvar et al, […] 1987 15(2): 250-55 and generally by tandem mass spectroscopy.
NBI-98854 was administered orally once daily at a dose of 50 mg or 100 mg for 8 days to patients in a multiple-dose cohort (n=13 for 50 mg dosage group; n=4 for 100 mg dosage group). Individual subject plasma concentration data for (+)α-HTBZ was collected at scheduled times post-dose (0 hr, 2 hr, 4 hr, 6 hr, 8 hr, 12 hr, 16 hr, 24 hr, 48 hr, 96 hr, and 120 hr) on day 8 and presented as mean plasma concentration data (linear scale) (see, FIG. 1). On Day 8, median time to Tmax for (+)α-HTBZ was approximately 4.0 hours for both doses.

TD subjects [2] = test: Phase 2 clinical study of NBI-98854: exposure-AIMS (video-rated) analysis; assay type: in vivo, human; settings: for Mean AIMS reduction - % (week 6 vs baseline): regardless of NBI-98854 dose
Description: Methods for determining the effectiveness of a therapeutic for treating a hyperkinetic disorder are routinely practiced in the art by a person skilled in the medical and clinical arts. By way of example, a subject with a hyperkinetic disorder may be diagnosed, monitored, and evaluated by the Abnormal Involuntary Movement Scale (AIMS). The AIMS is a structured neurological examination that was developed in 1976 and has been used extensively in movement disorder assessments. It consists of seven distinct ratings of regional involuntary body movements that are scored on a zero to four scale with zero being rated as none and four being rated as severe.
(§2) Observed exposure and Abnormal Involuntary Movement Scale (AIMS) derived from video ratings from a Phase 2 clinical study of (S)-2-amino-3-methyl-butyric acid (2R,3R,11bR)-3-isobutyl-9,10-dimethoxy-1,3,4,6,7,11b-hexahydro-2H-pyrido[2,1-a]isoquinolin-2-yl ester were employed for development of the exposure-response relationship. A total of […] were randomized to placebo (N=41) and (S)-2-amino-3-methyl-butyric acid (2R,3R,11bR)-3-isobutyl-9,10-dimethoxy-1,3,4,6,7,11b-hexahydro-2H-pyrido[2,1-a]isoquinolin-2-yl ester (either 25 mg, 50 mg or 75 mg, N=45). Thirty-eight patients receiving (S)-2-amino-3-methyl-butyric acid (2R,3R,11bR)-3-isobutyl-9,10-dimethoxy-1,3,4,6,7,11b-hexahydro-2H-pyrido[2,1-a]isoquinolin-2-yl ester had PK data available for the metabolite [+]α-dihydrotetrabenazine. […] AIMS derived from video rating was available at baseline and week 6 in each patient. Percent change from baseline at week 6 served as the response metric. [+]α-Dihydrotetrabenazine concentration at week 6 sampled at about the Tmax was available in each patient and this Cmax steady state (ss) was used as the exposure measure.
(§3) The patients who had quantifiable concentrations of [+]α-dihydrotetrabenazine were divided into quartiles based upon the week 6 Cmax ss. The mean Cmax ss and mean AIMS reduction from baseline were calculated for each quartile.

[3] = Phase 2 clinical study: week 6 plasma concentration (Cmax ss) of [+]α-HTBZ; assay type: in vivo; settings: human, NBI-98854 25, 50 or 75 mg, TD patients
Description: as §1, §2, §3

[4] = cited from earlier work
TD subjects [5] = test: Tolerability of repeated doses in TD subjects; assay type: in vivo, human; settings: repeated doses from 12.5 mg to 100 mg per day
Experimental: Efficacy is related to the concentrations of the active metabolite [+]α-dihydrotetrabenazine. […] Exposures above 60 ng/mL in plasma afford little incremental benefit but increase the risk of adverse events reflecting extension of VMAT2 pharmacology. Exposures below 15 ng/mL are suboptimal across the general TD population.

patients exposed to drug = settings: patients exposed to metoclopramide (Rao et al 2010); cited from earlier work
[6] = active metabolite after NBI-98854, TD population

Plasma concentration maintained above threshold ([1]; NBI-98854 50 mg once daily, over a period of about 8 to about 24 hours): > 15 ng/mL
half-life ([1]; human, plasma, po, NBI-98854 50 mg orally once daily): ~21 h
half-life ([1]; human, plasma, po, NBI-98854 100 mg orally once daily): ~19 h
Tmax ([1]; human, plasma, po, NBI-98854 orally once daily, both doses (50 mg and 100 mg), read-out: median time to Tmax): ~4 h
Cmax ([3]; 1st quartile by week 6 Cmax ss): ~15 ng/mL
Cmax ([3]; 2nd quartile by week 6 Cmax ss): ~29 ng/mL
Cmax ([3]; 3rd quartile by week 6 Cmax ss): 42 ng/mL
Cmax ([3]; 4th quartile by week 6 Cmax ss): 93 ng/mL
Structure (SMILES): COc1cc2c(cc1OC)[C@H]1C[C@@H](O)[C@H](CC(C)C)CN1CC2 [(+)α-HTBZ, (2R, 3R, 11bR)-3-isobutyl-9,10-dimethoxy-1,3,4,6,7,11b-hexahydro-2H-pyrido[2,1-a]isoquinolin-2-ol]
Appropriate target concentration in plasma (exposure-response analysis) (TD subjects [2]; [6]): 30 ng/mL
Plasma exposures affording little incremental benefit but increased risk of adverse events (TD subjects [2]; [6]): above 60 ng/mL
Plasma exposures that are suboptimal across the general TD population (TD subjects [2]; [6]): below 15 ng/mL

Structure (SMILES): COc1cc2c(cc1OC)C1CC(O)C(CC(C)C)CN1CC2 (centres unmarked) [HTBZ, 3-isobutyl-9,10-dimethoxy-1,3,4,6,7,11b-hexahydro-2H-pyrido[2,1-a]isoquinolin-2-ol]
half-life ([4]; HTBZ formed from tetrabenazine in humans): short

Structure (SMILES): COc1cc2c(cc1OC)[C@H]1C[C@@H](OC(=O)[C@@H](N)C(C)C)[C@H](CC(C)C)CN1CC2 [NBI-98854, (S)-2-amino-3-methyl-butyric acid (2R,3R,11bR)-3-isobutyl-9,10-dimethoxy-1,3,4,6,7,11b-hexahydro-2H-pyrido[2,1-a]isoquinolin-2-yl ester]
Tolerability (TD subjects [5]): generally well tolerated
Mean AIMS reduction - % (week 6 vs baseline) (TD subjects [2]; 3rd quartile of [+]α-HTBZ Cmax ss): 65%
Mean AIMS reduction - % (week 6 vs baseline) (TD subjects [2]; 4th quartile of [+]α-HTBZ Cmax ss): 52%

Structure (SMILES): CCN(CC)CCNC(=O)c1cc(Cl)c(N)cc1OC [metoclopramide]
Occurrence of drug-induced TD in patients exposed to drug (patients exposed to drug): < 1%

Structure (SMILES): COc1cc2c(cc1OC)C1CC(=O)C(CC(C)C)CN1CC2 (centres unmarked) [tetrabenazine, 3-isobutyl-9,10-dimethoxy-1,3,4,6,7,11b-hexahydro-2H-pyrido[2,1-a]isoquinolin-2-one]
Systemic exposure to parent drug ([4]; in humans, rapidly metabolized to HTBZ): virtually negligible
